# What was measured:
# HIV-1 RT mutant V111A = assay: single round infection assay, V111A; assay type: cell-based; conditions: for fold-change of IC50 of the mutant relative to WT: V111A vs WT; for IC50: Human immunodeficiency virus 1, V111A, ± SD, n=4
# Procedure: (§1) The human osteosarcoma cell line, HOS, was obtained from Dr. Richard Schwartz (Michigan State University, East Lansing, MI) and grown in Dulbecco’s modified Eagle’s medium (Invitrogen, Carlsbad, CA) supplemented with 5 % (v/v) fetal bovine serum, 5 % newborn calf serum, and penicillin (50 units/ml) plus streptomycin (50 µg/ml; Quality Biological, Gaithersburg, MD). Virion production and single-round infectivity assays were used to determine antiviral activity (IC50 values) of the compounds as previously described.
# (§2) pNLNgoMIVR-ΔEnv.LUC has been described previously. The RT open reading frame was removed from pNLNgoMIVR-ΔEnv.LUC (digestion with SpeI and SalI) and inserted between the SpeI and SalI sites of pBluescript II KS+. Using that construct as the wild-type template, we prepared the following HIV-1 RT mutants using the QuikChange II XL (Stratagene, La Jolla, CA) site-directed mutagenesis protocol kit: L100I, K103N, Y181C, Y188L, H221Y, K103N/Y181C, G190A, G190S, M230L, P236L, L100I/K103N, K103N/P225H, V106A/G190A/F227L, V106A, L234I, V106A/F227L, V106A/L234I, V106A/F227L/L234I, E40K, D67E, K101E, V111A, E138K, M184I, M184V, K101E/M184I, K101E/M184V, E138K/M184I, E138K/M184V, K101P, Y181I, and K101P/V179I. The following sense oligonucleotides were used with matching cognate antisense oligonucleotides (not shown) (Integrated DNA Technologies, Coralville, IA) in the mutagenesis: L100I, 5′-[…]-3′; L100I 2-103, 5′-[…]-3′; K103N, 5′-[…]-3′; Y181C, 5′-[…]-3′; Y188L, 5′-[…]-3′; H221Y, 5′-[…]-3′; G190A, 5′-[…]-3′; G190S, 5′-[…]-3′; P225H, 5′-[…]-3′; F227, 5′-[…]-3′; M230L, 5′-[…]-3′; P236L, 5′-[…]-3′; V106A, 5′-[…]-3′; L234I, 5′-[…]-3′; E40K, 5′-[…]-3′; D67E, 5′-[…]-3′; K101E, 5′-[…]-3′; V111A, 5′-[…]-3′; E138K, 5′-[…]-3′; M184I, 5′-[…]-3′; M184V, 5′-[…]-3′; K101P, 5′-[…]-3′; Y181I, 5′-[…]-3′; K101P/V179I, 5′-[…]-3′. The double mutants K103N/Y181C, K103N/P225H, and L100I/K103N were made using the previously generated K103N mutant and the appropriate oligonucleotides to add the second mutation, Y181C, P225, and L100I respectively. The double mutants V106A/F227L and V106A/L234I were prepared using the previously generated V106A mutant and the appropriate oligonucleotides to add the second mutation, F227L and L234I, respectively. The double mutants K101E/M184I and K101E/M184V were constructed using the previously generated K101E mutant and the appropriate oligonucleotides to add the second mutation, M184I and M184V, respectively. The double mutants E138K/M184I and E138K/M184V were constructed using the previously generated E138K mutant and the appropriate oligonucleotides for the second mutation, M184I and M184V, respectively. The triple mutant V106A/F227L/L234I was made using the previously generated V106A/F227L double mutant and the appropriate oligonucleotides for the third mutation, L234I. The triple mutant V106A/G190A/F227L was constructed in a series of steps using the previously generated V106A mutant and the appropriate oligonucleotides for the second mutation, G190A, to generate the double mutant V106A/G190A, and then the triple mutant was made using double mutant V106A/G190A and oligonucleotides for the third mutation, F227L. […]
# (§3) 10.1186/s12977-016-0244-2 The IC50 values (nM) of RPV and the RPV analogs were determined against the NNRTI resistant mutants were measured by using a single round infection assay, n = 4. The concentrations (nM) are measured by reductions in luciferase reporter activity followed by the standard deviations. […]
# [1] = system: HIV-1 RT mutant K103N/Y181C; parameters: method as in PMID 23217210; conditions: previous study; cited from earlier work
# HIV-1 RT mutant Y188L = system: HIV-1 RT mutant Y188L; parameters: method as in PMID 23217210; conditions: previous study; cited from earlier work
# [2] = system: HIV-1 RT mutant V106A/L234I; assay: single round infection assay, V106A/L234I; assay type: cell-based; conditions: V106A/L234I vs WT
# Procedure: as §1
# pNLNgoMIVR-ΔEnv.LUC has been described previously. The RT open reading frame was removed from pNLNgoMIVR-ΔEnv.LUC (digestion with SpeI and SalI) and inserted between the SpeI and SalI sites of pBluescript II KS+. Using that construct as the wild-type template, we prepared the following HIV-1 RT mutants using the QuikChange II XL (Stratagene, La Jolla, CA) site-directed mutagenesis protocol kit: L100I, K103N, Y181C, Y188L, H221Y, K103N/Y181C, G190A, G190S, M230L, P236L, L100I/K103N, K103N/P225H, V106A/G190A/F227L, V106A, L234I, V106A/F227L, V106A/L234I, V106A/F227L/L234I, E40K, D67E, K101E, V111A, E138K, M184I, M184V, K101E/M184I, K101E/M184V, E138K/M184I, E138K/M184V, K101P, Y181I, and K101P/V179I. […]
# as §3
# HIV-1 RT mutant M184V = assay: single round infection assay, M184V; assay type: cell-based; conditions: for IC50: Human immunodeficiency virus 1, M184V, ± SD, n=4; for fold-change of IC50 of the mutant relative to WT: M184V vs WT
# Procedure: as §1, §2, §3
# HIV-1 RT mutant M184I = assay: single round infection assay, M184I; assay type: cell-based; conditions: for IC50: Human immunodeficiency virus 1, M184I, ± SD, n=4
# Procedure: as §1
# as §2, with “respectively.” for “respectively. The double mutants E138K/M184I and E138K/M184V were constructed using the previously generated E138K mutant and the appropriate oligonucleotides for the second mutation, M184I and M184V, respectively. The triple mutant V106A/F227L/L234I was made using the previously generated V106A/F227L double mutant and the appropriate oligonucleotides for the third mutation, L234I. The triple mutant V106A/G190A/F227L was constructed in a series of steps using the previously generated V106A mutant and the appropriate oligonucleotides for the second mutation, G190A, to generate the double mutant V106A/G190A, and then the triple mutant was made using double mutant V106A/G190A and oligonucleotides for the third mutation, F227L.”
# as §3
# HIV-1 RT mutant E138K = system: HIV-1 RT mutant E138K; parameters: method as in PMID 23217210; conditions: previous study; cited from earlier work
structure (smiles),measurement,setting,value
"Cc1cc(/C=C/C#N)cc(C)c1Nc1ccnc(Nc2ccc(C#N)cc2)n1 [RPV, rilpivirine]",fold-change of IC50 of the mutant relative to WT,HIV-1 RT mutant V111A,< 2
same,IC50,[1],< 5 nM
Cc1cc(/C=C/C#N)cc(C)c1Nc1nc(Nc2ccc3scnc3c2)c2nc[nH]c2n1 [compound 21],IC50,HIV-1 RT mutant Y188L,< 10 nM
same,fold-change of IC50 of the mutant relative to WT,[2],2
Cc1cc(/C=C/C#N)cc(C)c1-n1cnc2cnc(Nc3ccc(C#N)cc3)nc21 [compound 27],IC50,HIV-1 RT mutant Y188L,< 10 nM
Cc1cc(/C=C/C#N)cc(C)c1Nc1nc(Nc2ccc(F)cc2)c2nc[nH]c2n1 [compound 17],IC50,HIV-1 RT mutant M184V,1.6 ± 0.26 nM
same,IC50,HIV-1 RT mutant V111A,0.5 ± 0.17 nM
same,IC50,HIV-1 RT mutant M184I,1.7 ± 0.3 nM
Cc1cc(/C=C/C#N)cc(C)c1Nc1nc(Nc2ccc(C#N)cc2)c2nc[nH]c2n1 [compound 13],IC50,HIV-1 RT mutant Y188L,< 10 nM
Cc1cc(/C=C/C#N)cc(C)c1Nc1nc(Nc2ccc(C#N)cc2)ncc1N [compound 7],IC50,HIV-1 RT mutant Y188L,< 10 nM
same,IC50,[1],< 5 nM
Cc1cc(/C=C/C#N)cc(C)c1Nc1nc(Nc2ccc(C#N)cc2)ncc1[N+](=O)[O-] [compound 6],IC50,HIV-1 RT mutant Y188L,< 10 nM
CC(=O)c1ccc(Nc2nc(Nc3c(C)cc(/C=C/C#N)cc3C)nc3[nH]cnc23)cc1 [compound 14],fold-change of IC50 of the mutant relative to WT,[2],3
Cc1cc(/C=C/C#N)cc(C)c1Nc1ncc2ncn(-c3ccc(C#N)cc3)c2n1 [compound 26],IC50,HIV-1 RT mutant M184V,4.2 ± 0.99 nM
same,fold-change of IC50 of the mutant relative to WT,[2],5
same,IC50,HIV-1 RT mutant V111A,1.5 ± 0.8 nM
same,IC50,HIV-1 RT mutant M184I,5.6 ± 2.2 nM
COc1ccc(Cn2cnc3c(Nc4ccc(C#N)cc4)nc(Nc4c(C)cc(/C=C/C#N)cc4C)nc32)cc1 [compound 12],IC50,HIV-1 RT mutant M184V,1.6 ± 0.42 nM
same,fold-change of IC50 of the mutant relative to WT,HIV-1 RT mutant M184V,2
same,IC50,HIV-1 RT mutant E138K,15 nM
same,IC50,HIV-1 RT mutant V111A,0.76 ± 0.17 nM
same,fold-change of IC50 of the mutant relative to WT,HIV-1 RT mutant V111A,< 2
same,IC50,HIV-1 RT mutant M184I,0.69 ± 0.2 nM
COc1ccc(Nc2nc(Nc3c(C)cc(/C=C/C#N)cc3C)nc3[nH]cnc23)cc1 [compound 16],fold-change of IC50 of the mutant relative to WT,HIV-1 RT mutant M184V,< 2
same,fold-change of IC50 of the mutant relative to WT,HIV-1 RT mutant M184I; M184I vs WT,< 2
